{
  "source": "paper PMC11513854",
  "about": "“De novo GTP synthesis is a metabolic vulnerability for the interception of brain metastases” (Cell Reports Medicine, 2024)",
  "key": {"[1]": {"tested_on": "de novo GTP synthesis pathway", "experiment": "LC-MS metabolomics profiling", "assay_type": "cell-based, human", "settings": "IC80, 6 h; for GDP and GTP levels: BT478, BT530; for AICAR levels: b56: accumulates in only some conditions", "method": "Metabolites were extracted with a solution of cold acetonitrile/methanol/water (2:2:1) from the cell pellets and protein precipitation was performed by three cycles of freeze/thawing and sonication. The LC-MS metabolomics analysis was performed as previously described.[75] Briefly, a UHPLC-MS system consisting of an Agilent 6550 qToF coupled to an Agilent 1290 binary pump UHPLC system was used. The source parameters were as follows: Gas temperature, 150 °C at 14 L/min and 45 psig; Sheath gas temperature, 325 °C at 12 L/min; Capillary and nozzle voltages were set to −2.0 kV iFunnel conditions were changed from default to-30 V DC, High pressure funnel drop −100 V and RF voltage of 110 V, low pressure funnel drop −50 V and RF voltage of 60 V. Chromatographic separation was achieved by ion-paired chromatography. In brief, […] of each sample was injected onto Agilent ZORBAX Extend-C18 (150 mm 3 2.1 mm i.d.; 1.8 mm) column using tributylamine (TBA) as an ion paring agent (solvent A: 3% methanol, 97% water 10 mM TBA, 15 mM Acetic acid, solvent B: 100% methanol). The linear gradient employed was as follows: 0–2.5 min 99% A, 2.5–7.5 min decrease to 80% A, 7.5–13 min to 55% B and finally 13–15 min to 99% B and held for 1 min. The column was re-generated for 2 min at 1% B. The flow rate was set to […]. The column temperature was maintained at 25°C. Skyline was used for data processing of metabolites in our library of standards using known retention times and MS/MS spectra. Integrated peak areas for the metabolites was exported for further statistical and metabolite enrichment analysis by using online MetaboAnalyst (https://www.metaboanalyst.ca/)."}, "IMPDH KO BT478 cells": {"tested_on": "IMPDH KO BT478 cells", "experiment": "Dose-response assays using AAVS1 and IMPDH KO cells", "assay_type": "cell-based, human", "settings": "IMPDH1 and IMPDH2 knocked out", "text": "In parallel, we knocked out the safe-harbor locus, AAVS1, as a control cell line. Knockouts were validated by western blot (Figures 5E and S4D). Loss of IMPDH led to tumor cell death within 1 week of knockout (Figure 5F).\nGuide RNAs (gRNAs) targeting AAVS1 (5′-[…]-3′) and IMPDH1 (5′- […]-3′) and IMPDH2 (5′-a[…]-3′) were obtained from TKOv3[76] and cloned into a single-gRNA lentiCRISPRv2 construct (Addgene 52961). Sequences were verified using Sanger sequencing. Each plasmid was packaged independently into lentivirus using second-generation packaging constructs as described previously.[77] BMICs were infected with lentivirus containing single-gRNA lentiCRISPRv2 constructs targeting AAVS1 or IMPDH1 or IMPDH2 (three gRNAs). Twenty-four hours post-infection, virus-containing media was replaced with fresh media containing puromycin (1–2 μg/mL) (ThermoFisher, Cat#A1113803) for 48–72 h. The knockout efficiency was validated by Western Blotting for evaluation of IMPDH protein expression."}, "[2]": {"tested_on": "patient-derived BMIC lines from lung-, breast-, and melanoma-BM", "experiment": "Dose-response curves of multiple BM lines", "assay_type": "cell-based, human", "settings": "72-h treatment; below plasma Cmax concentration of 10 μM", "text": "PrestoBlue readout is normalized to vehicle-treated cells. Data are presented as mean ± SD from 4 technical replicates. (C) Assessment of cell viability of patient-derived BMICs treated with MPA or its vehicle. PrestoBlue readout is normalized to vehicle-treated cells, p < 0.0001. […] Sphere count normalized to vehicle-treated cells, p < 0.0001. (F and G) Percent wound closure of DMSO control vs. MPA-treated cells expressed as an average of replicates (n = 3) and images are taken at 10× magnification. Wound closure (represented by dotted white line) is measured using ImageJ on Incucyte-derived images, p values are indicated. Scale bars are 400 μm. See also Videos S1, S2, S3, and S4. Comparisons of cell viability, sphere formation, and wound closure were made via a two-tailed unpaired t test and data are presented as mean ± SD from 3 to 4 technical replicates. […]\nDose-response assays were conducted using the same protocol apart from drugs being plated using 2-fold serial dilutions (20 μM - 39 nM) as previously described.[66] The half maximal inhibitory concentration (IC50) is determined by plotting percent cell viability by the logarithmic concentration of drug. IC80 concentrations will be used for subsequent functional assays (cell proliferation, sphere formation), as determined by the following formula: ICF=100−F/F^1/H×IC50 where F = fraction of maximal response and H = hill slope."}, "patient-derived BMICs [3]": {"tested_on": "patient-derived BMICs", "experiment": "Clonogenic secondary sphere formation assay after drug removal", "assay_type": "cell-based, human", "settings": "IC80 treatment for 72 h, then removal from culture media"}, "[4]": {"tested_on": "patient-derived lung-BMICs", "experiment": "Intracardiac injection of lung-BMICs, daily oral gavage treatment", "assay_type": "in vivo, mice", "settings": "100 mg/kg daily oral gavage, vs placebo", "text": "We next wondered whether a drug used to slow down, or block, BM needed to be BBB penetrant and aimed to uncover whether MPA could target pre-metastatic BMICs in the circulation in a more clinically relevant in vivo treatment model.\nAll experimental procedures involving animal work has been reviewed and approved by McMaster University Animal Research Ethics Board. Non-obese diabetic-severe combined immunodeficient IL2r γ ^null (NSG) mice are used for all experiments. Equal numbers of male and female mice were used for all experiments. Healthy mice were 6–8 weeks at time of use. Mice are anesthetized by gas anesthesia using isoflurane (4% induction, 2.5% maintenance) before procedure. Cells were engineered to express firefly luciferase and were injected intracardially, orthotopically, or intracranially as previously described.[13]^,[14]^,[63]^,[64]^,[65] […] Mice are monitored weekly for signs of illness until endpoint.\nFig S3. MPA m ust cross the blood brain barrier to eff ectively slow the progression of BM over tim e, related to Figures 3 and 4. a, Mice were either orthotopically (intratho racically) or intracardiac injected with lung BMICs, […]\nto placebo, but (f) had the same number of human cells detected in their brains following humane endpoint by flow cytometry. n.s. = not significant. […]"}, "patient-derived BMICs [5]": {"tested_on": "patient-derived BMICs", "experiment": "Cell proliferation assay over time, PrestoBlue", "assay_type": "cell-based, human", "settings": "IC80, PrestoBlue normalized to vehicle", "method": "Cell proliferation assays were conducted using the same protocol, except for drugs being plated at their IC80 for a four-day incubation period. All results were illustrated and analyzed for significance using GraphPad Prism 8 software."}},
  "data": [
    {"smiles": "COc1c(C)c2c(c(O)c1C/C=C(\\C)CCC(=O)OCCN1CCCC1)C(=O)OC2", "note": "[Compound 3]", "values": [
      {"measurement": "GDP and GTP levels", "setting": "[1]", "value": "significantly reduced"},
      {"measurement": "levels of dihydroorotic acid", "setting": "[1]", "value": "did not influence"},
      {"measurement": "AICAR levels", "setting": "[1]", "value": "accumulate"},
      {"measurement": "anti-BMIC activity following IMPDH knockout", "setting": "IMPDH KO BT478 cells", "value": "lose their anti-BMIC activity"}
    ]},
    {"smiles": "COc1c(C)c2c(c(O)c1C/C=C(\\C)CCC(=O)O)C(=O)OC2", "note": "[MPA, Mycophenolic acid]", "values": [
      {"measurement": "GDP and GTP levels", "setting": "[1]", "value": "significantly reduced"},
      {"measurement": "levels of dihydroorotic acid", "setting": "[1]", "value": "did not influence"},
      {"measurement": "AICAR levels", "setting": "[1]", "value": "accumulate"},
      {"measurement": "anti-BMIC activity against multiple BMIC lines", "setting": "[2]", "value": "relatively high anti-BMIC activity"},
      {"measurement": "sphere-forming capability following drug removal", "setting": "patient-derived BMICs [3]", "value": "do not regain sphere-forming capability"},
      {"measurement": "anti-BMIC activity following IMPDH knockout", "setting": "IMPDH KO BT478 cells", "value": "lose their anti-BMIC activity"},
      {"measurement": "brain tumor burden", "setting": "[4]; 7 days post-injection", "value": "significantly reduced brain tumor burden"},
      {"measurement": "difference in brain tumor burden", "setting": "[4]; 14 days post-injection", "value": "no longer observed"},
      {"measurement": "BMIC proliferation over time", "setting": "patient-derived BMICs [5]", "value": "inhibits BMIC proliferation over time"}
    ]}
  ]
}
